Here are results for 13 compounds from ChEMBL document CHEMBL1156221, “A-ring modifications on the triazafluorenone core structure and their mGluR1 antagonist properties” (Bioorg Med Chem Lett, 2010).

SMILES strings stand for the structures.

Data set [1] concerns the target Metabotropic glutamate receptor 1 (Homo sapiens, UniProt Q13255). The experiment in a line: Antagonist activity at human mGluR1. Type of data set: functional.
In data set [2] the target is Metabotropic glutamate receptor 5 (Homo sapiens, UniProt P41594). The data set can be described thus: Antagonist activity at human mGluR5. Type of data set: functional.
Sequence of Metabotropic glutamate receptor 5 (P41594 whole entry): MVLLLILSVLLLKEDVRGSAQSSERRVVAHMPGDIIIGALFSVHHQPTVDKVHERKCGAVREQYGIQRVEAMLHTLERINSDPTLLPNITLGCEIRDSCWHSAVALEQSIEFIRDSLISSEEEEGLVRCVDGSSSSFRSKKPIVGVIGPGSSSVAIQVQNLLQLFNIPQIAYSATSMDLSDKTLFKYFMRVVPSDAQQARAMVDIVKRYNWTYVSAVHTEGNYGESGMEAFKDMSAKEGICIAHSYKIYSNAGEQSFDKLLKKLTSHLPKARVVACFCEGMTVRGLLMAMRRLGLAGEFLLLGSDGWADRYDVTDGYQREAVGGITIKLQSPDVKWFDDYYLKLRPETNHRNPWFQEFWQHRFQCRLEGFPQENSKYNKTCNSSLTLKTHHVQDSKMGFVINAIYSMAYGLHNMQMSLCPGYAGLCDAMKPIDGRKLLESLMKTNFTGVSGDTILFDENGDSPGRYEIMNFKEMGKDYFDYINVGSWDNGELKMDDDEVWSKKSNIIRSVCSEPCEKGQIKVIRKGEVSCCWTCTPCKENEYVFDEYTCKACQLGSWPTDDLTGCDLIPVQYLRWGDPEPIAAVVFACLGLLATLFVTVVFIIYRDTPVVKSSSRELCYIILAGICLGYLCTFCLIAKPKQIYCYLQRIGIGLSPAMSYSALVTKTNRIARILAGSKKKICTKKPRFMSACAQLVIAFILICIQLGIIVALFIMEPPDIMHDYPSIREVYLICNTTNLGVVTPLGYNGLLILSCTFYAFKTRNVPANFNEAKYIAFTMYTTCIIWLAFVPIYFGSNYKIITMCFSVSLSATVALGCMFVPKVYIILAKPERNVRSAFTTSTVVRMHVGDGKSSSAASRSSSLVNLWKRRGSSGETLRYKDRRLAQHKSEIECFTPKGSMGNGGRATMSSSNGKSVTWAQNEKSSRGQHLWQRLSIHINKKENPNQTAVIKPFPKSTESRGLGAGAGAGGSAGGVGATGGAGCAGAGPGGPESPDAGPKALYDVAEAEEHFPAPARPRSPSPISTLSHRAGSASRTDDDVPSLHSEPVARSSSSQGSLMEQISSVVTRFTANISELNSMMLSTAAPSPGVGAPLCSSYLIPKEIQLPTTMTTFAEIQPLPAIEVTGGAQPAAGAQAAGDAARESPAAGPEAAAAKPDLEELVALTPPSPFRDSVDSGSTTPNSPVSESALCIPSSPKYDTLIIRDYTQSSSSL
A short description of data set [3]: AUC in rat at 10 mg/kg, po by LC/API-MS/MS. It is filed as ADME, organism-based. On the set-up: dose 10 mg/kg, route oral. To be noted: plasma.
A short description of data set [4]: Drug level in rat brain at 10 mg/kg, po after 6 hrs. Type of data set: ADME, organism-based. On the set-up: dose 10 mg/kg, route oral. The settings on record: read-out: Drug uptake.
A short description of the next data set: in vivo. To be noted: rat, brain/plasma, po, 10 mg/kg.
The target of data set [5] is Metabotropic glutamate receptor 1 (Rattus norvegicus, UniProt P23385). The data set can be described thus: Antagonist activity at rat mGluR1. It is filed as functional.
Sequence of Metabotropic glutamate receptor 1 (Rattus norvegicus, UniProt P23385) (P23385 whole entry, looked up): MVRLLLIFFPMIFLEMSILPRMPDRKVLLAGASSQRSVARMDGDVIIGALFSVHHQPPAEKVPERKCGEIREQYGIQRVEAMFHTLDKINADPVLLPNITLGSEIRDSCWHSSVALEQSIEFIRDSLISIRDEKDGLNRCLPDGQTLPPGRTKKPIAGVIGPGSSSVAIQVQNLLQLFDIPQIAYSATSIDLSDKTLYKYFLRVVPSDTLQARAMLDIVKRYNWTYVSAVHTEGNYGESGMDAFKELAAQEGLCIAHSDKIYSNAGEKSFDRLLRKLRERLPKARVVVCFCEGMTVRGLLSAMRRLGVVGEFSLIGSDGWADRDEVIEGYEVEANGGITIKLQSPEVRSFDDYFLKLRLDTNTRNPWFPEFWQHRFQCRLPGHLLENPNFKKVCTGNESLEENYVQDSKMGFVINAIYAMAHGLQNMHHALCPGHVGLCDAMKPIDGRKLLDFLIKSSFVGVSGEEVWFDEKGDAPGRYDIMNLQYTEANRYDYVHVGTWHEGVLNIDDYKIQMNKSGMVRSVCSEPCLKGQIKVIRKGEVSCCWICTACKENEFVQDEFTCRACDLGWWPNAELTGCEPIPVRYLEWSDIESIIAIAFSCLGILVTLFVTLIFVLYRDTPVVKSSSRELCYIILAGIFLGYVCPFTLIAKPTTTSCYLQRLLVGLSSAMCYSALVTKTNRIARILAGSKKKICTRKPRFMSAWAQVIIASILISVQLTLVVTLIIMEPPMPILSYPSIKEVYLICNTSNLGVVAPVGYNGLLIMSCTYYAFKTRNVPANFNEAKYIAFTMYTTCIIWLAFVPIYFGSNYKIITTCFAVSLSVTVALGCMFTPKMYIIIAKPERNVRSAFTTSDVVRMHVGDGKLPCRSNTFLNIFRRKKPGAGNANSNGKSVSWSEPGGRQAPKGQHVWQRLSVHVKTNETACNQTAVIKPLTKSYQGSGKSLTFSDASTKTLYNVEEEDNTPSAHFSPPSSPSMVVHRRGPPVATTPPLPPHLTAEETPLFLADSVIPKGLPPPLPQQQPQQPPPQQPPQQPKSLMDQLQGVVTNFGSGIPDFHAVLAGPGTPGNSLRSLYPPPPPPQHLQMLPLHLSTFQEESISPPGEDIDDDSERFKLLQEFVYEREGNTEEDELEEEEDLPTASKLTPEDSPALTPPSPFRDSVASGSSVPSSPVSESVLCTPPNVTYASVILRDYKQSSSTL
Data set [6] addresses Metabotropic glutamate receptor 1 (Rattus norvegicus). The experiment in a line: Antagonist activity at rat mGluR1.

Sequence of Metabotropic glutamate receptor 1 (Homo sapiens, UniProt Q13255) (Q13255 whole entry): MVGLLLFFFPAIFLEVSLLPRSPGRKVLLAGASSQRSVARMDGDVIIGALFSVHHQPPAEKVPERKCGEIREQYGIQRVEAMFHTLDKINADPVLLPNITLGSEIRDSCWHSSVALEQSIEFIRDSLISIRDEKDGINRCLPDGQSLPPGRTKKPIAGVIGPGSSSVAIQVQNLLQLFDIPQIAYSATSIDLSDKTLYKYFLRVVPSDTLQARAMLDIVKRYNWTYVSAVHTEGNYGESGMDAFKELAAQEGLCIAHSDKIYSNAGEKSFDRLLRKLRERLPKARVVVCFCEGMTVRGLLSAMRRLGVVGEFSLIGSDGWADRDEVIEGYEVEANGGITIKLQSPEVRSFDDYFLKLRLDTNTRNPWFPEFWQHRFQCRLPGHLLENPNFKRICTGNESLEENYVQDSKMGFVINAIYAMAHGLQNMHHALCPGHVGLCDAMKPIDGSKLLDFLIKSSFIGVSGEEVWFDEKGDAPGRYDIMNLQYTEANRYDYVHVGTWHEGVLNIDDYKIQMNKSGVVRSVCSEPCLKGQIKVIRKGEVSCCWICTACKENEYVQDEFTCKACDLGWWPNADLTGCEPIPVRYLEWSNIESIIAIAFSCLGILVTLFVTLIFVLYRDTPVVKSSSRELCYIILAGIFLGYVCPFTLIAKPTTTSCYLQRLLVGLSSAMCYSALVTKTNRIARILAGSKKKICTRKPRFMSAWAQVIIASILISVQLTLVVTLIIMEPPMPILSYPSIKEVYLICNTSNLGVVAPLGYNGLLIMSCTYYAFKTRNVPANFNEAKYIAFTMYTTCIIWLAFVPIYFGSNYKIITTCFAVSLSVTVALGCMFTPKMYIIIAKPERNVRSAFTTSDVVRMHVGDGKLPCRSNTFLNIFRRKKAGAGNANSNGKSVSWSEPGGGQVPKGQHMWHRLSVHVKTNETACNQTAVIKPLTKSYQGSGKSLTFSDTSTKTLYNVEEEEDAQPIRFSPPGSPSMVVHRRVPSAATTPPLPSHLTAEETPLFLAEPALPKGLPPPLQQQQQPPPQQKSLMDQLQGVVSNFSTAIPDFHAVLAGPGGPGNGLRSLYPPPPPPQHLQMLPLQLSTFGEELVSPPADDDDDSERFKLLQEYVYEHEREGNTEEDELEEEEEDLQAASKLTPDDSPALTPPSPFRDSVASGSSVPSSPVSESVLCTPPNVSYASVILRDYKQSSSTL
Description for in vivo: Ratio of drug level in brain to plasma in rat at 10 mg/kg, po

Turning to `Cc1nc(N)c2c(n1)sc1c(=O)n(-c3ccccc3)cnc12`, the IC50 (as a rule, the point on the concentration scale where inhibition reaches its midpoint) in data set [1] is 16 nM; in data set [2] it was over 3000 nM.
Take `COc1ccc(-n2cnc3c(sc4nc(C)nc(N)c43)c2=O)cc1`: the half-inhibitory concentration (IC50) in data set [1] is 188 nM; in data set [2], over 3000 nM.
Take `Cc1nc(N)c2c(n1)sc1c(=O)n(-c3ccc(F)cc3)cnc12`: the half-maximal inhibitory concentration (IC50) was 68 nM in data set [1] and over 3000 nM in data set [2].
As to `Cc1nc(N)c2c(n1)sc1c(=O)n(-c3ccc(Cl)cc3)cnc12`, the IC50 is 11 nM in data set [1] and over 3000 nM in data set [2].
Take `Cc1ccc(-n2cnc3c(sc4nc(N)nc(N)c43)c2=O)cc1`: the half-maximal inhibitory concentration (IC50) in data set [2] was over 3000 nM. Besides, in data set [3], the AUC (commonly the area under the concentration-time curve, a measure of exposure) was found to be 965 ng·h/mL. Also, in data set [4], the concentration at 6 h amounted to 100 ng/g. The partition ratio (Kp) – broadly, tissue or fluid exposure divided by exposure in the circulation – in the data set “in vivo” was 0.9.
With `CNc1nc(N)c2c(n1)sc1c(=O)n(-c3ccc(C)cc3)cnc12`, the IC50 in data set [1] is over 1000 nM; in data set [2] it was over 3000 nM.
The like results for `Cc1ccc(-n2cnc3c(sc4nc(-n5cccc5)nc(N)c43)c2=O)cc1` were, in that order, over 1000 nM and over 3000 nM.
The like results for `Cc1ccc(-n2cnc3c(sc4[nH]c(=O)nc(N)c43)c2=O)cc1` were, in that order, over 1000 nM and over 3000 nM.
The like results for `Cc1ccc(-n2cnc3c(sc4nc(S)nc(N)c43)c2=O)cc1` were, in that order, 3.1 nM and over 3000 nM.
Turning to `Cc1ccc(-n2cnc3c(sc4nc(C)nc(N)c43)c2=O)cc1`, the values for the IC50 in data set [1] and in data set [2] were 27 nM and over 3000 nM, respectively. Besides, the Ki in data set [5] and in data set [6] was 115 nM throughout. Besides, in data set [3], the AUC turned out to be 2110 ng·h/mL. For the same compound, the concentration at 6 h in data set [4] was determined as 29 ng/g. Moreover, the Kp in the data set “in vivo” was determined as 0.2.
Take `Cc1ccc(-n2cnc3c(sc4nc(C(F)(F)F)nc(N)c43)c2=O)cc1`: the values for the IC50 in data set [1] and in data set [2] were over 1000 nM and over 3000 nM, respectively.
For `Cc1ccc(-n2cnc3c(sc4nc(C5CC5)nc(N)c43)c2=O)cc1`, in that order: 326 nM and over 3000 nM.
`COc1ccc(-n2cnc3c(sc4nccc(N(C)C)c43)c2=O)cc1` showed an IC50 in data set [2] of over 3000 nM.
